From patent EP4417190A1, “CYCLIC PEPTIDES WITH ANTI-AGING EFFICACY” (Lipotrue, S.L., priority 2023, dated 2024)

Experiments:
[1] = tested on: human immunoglobulin binding protein (BiP); assay: BiP ELISA in HEKa cell lysates; assay type: cell-based; conditions: 24 hours
Experimental: The effect of cycled peptides was determined on the production of human immunoglobulin binding protein (BiP) in human epidermal keratinocytes from adult (HEKa), through quantification of this protein in vitro in cell culture lysates by enzyme linked immunosorbent assay (ELISA).
In this study the BiP levels in human epidermal keratinocytes treated with cycled peptide B was evaluated, through quantification of this protein in vitro in cell culture lysates by enzyme linked immunosorbent assay (ELISA).
HEKa cells were seeded in a 24-well plate at a density of 50.000 cells/well and maintained at standard culture conditions (Supplemented Dermal Cell Basal Medium, DCBM; 37°C, 95% RH, 5% CO2) for 24 hours. Then, keratinocytes were treated for 24 hours with or without the presence of 0.01 or 0.05 mg/mL of cycled peptide A or peptide B. After treatment, cells were lysed with RIPA buffer and lysates were collected and centrifuged in order to eliminate cell debris and were kept at -80°C until they were used for BiP quantification with BiP ELISA Kit according to manufacturer instructions. In order to normalize data, total protein content of each sample was quantified through Micro BCA Protein Assay kit according to manufacturer instructions.
Each condition was performed at least in triplicate (n=3) in three independent experiments (N=3). For all data, mean values of the different experiments and SEM values are shown. All data was first normalized as follows: BiP levels/cell = (BiP levels per well)/(Total protein (BCA) per well) [formula] % vs Basal = (BiP per cell in treated samples)/(Bip per cell in untreated samples) × 100 [formula]
Statistical data analysis was performed using Student t-test by comparison of % BiP expression from cells untreated (Basal) vs. treated with cycled peptide samples, *p<0.05, **p<0.01, ***p<0.001.

ITGB1 = assay: RT-qPCR expression of aging-related gene ITGB1 in HDFa; assay type: cell-based, human; conditions: 0.05 mg/mL, 6 h
Experimental: (§1) Then, cells were lysed, and RNA was extracted (RNeasy mini kit, Qiagen). Purified RNAs were retro-transcribed (High-capacity cDNA reverse transcription kit, Applied Biosystems). RT-qPCR was performed with the panel of TaqMan assay probes (Thermo Fisher Scientific) using StepOne plus Real time PCR instrument. […] The obtained data were analyzed using the ΔΔCt method, which provides the target gene expression values as fold changes in the treated sample compared with an untreated basal sample. Both samples were normalized with the relative expression of the housekeeping gene GAPDH.

ITGA5 [2] = assay: RT-qPCR expression of aging-related gene ITGA5 in HDFa; assay type: cell-based, human; conditions: 0.05 mg/mL, 6 h
Experimental: as §1

ITGA5 [3] = assay: RT-qPCR expression of aging-related gene ITGA5 in HEKa; assay type: cell-based, human; conditions: 0.01 mg/mL, 24 h
Experimental: as §1

## CC(C)C[C@@H]1NC(=O)[C@H](C)NC(=O)[C@H](Cc2c[nH]cn2)NC(=O)[C@H](Cc2c[nH]c3ccccc23)NC(=O)[C@H](Cc2ccccc2)NC(=O)[C@H](CCCNC(=N)N)NC1=O [Peptide B, cyclo-Phe-Trp- His- Ala-Leu-Arg]
[1]; 0.01 mg/mL
  % Mean (BiP per cell, % vs Basal): 110.18%
[1]; 0.05 mg/mL
  % Mean (BiP per cell, % vs Basal): 123.74%
[1]; concentration dependent
  increase of BiP levels, increment when compared with untreated cells (Basal): up to 24%
ITGB1
  Fold change vs. Basal: 1.66
ITGB1; normalized to GAPDH
  Mean normalized expression: 1.02E+00
ITGA5 [2]
  Fold change vs. Basal: 1.31
ITGA5 [2]; normalized to GAPDH
  Mean normalized expression: 2.57E-01
ITGA5 [3]
  Fold change vs. Basal: 1.84
ITGA5 [3]; normalized to GAPDH
  Mean normalized expression: 1.15E-01
